#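 A five-concentration, 48-hour dose response in 96-well plates underlies each endpoint, interpolated linearly between surrounding concentrations. GI50 is the concentration that inhibits growth by half.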 Active and inactive are the calls of the source. No stated cut-off is given here; in the data, active = GI50 up to about 1.1 µM and inactive = higher.
# Assays:
# Assay in all cases: growth of human tumour cells (NCI), 48 h
# [1] = system: 786-0
# [2] = system: A498
# [3] = system: A549
# [4] = system: ACHN
# [5] = system: CAKI-1
# [6] = system: CCRF-CEM
# [7] = system: COLO 205
# [8] = system: DLD-1
# [9] = system: DMS-114
# [10] = system: DMS-273
# [11] = system: EKVX
# [12] = system: HCC 2998
# [13] = system: HCT-116
# [14] = system: HCT-15
# [15] = system: HL-60
# [16] = system: HOP-18
# [17] = system: HOP-62
# [18] = system: HOP-92
# [19] = system: HT-29
# [20] = system: IGROV-1
# [21] = system: K562
# [22] = system: KM-20L2
# [23] = system: KM12
# [24] = system: LOX IMVI
# [25] = system: LXFL 529
# [26] = system: M14
# [27] = system: M19-MEL
# [28] = system: MOLT-4
# [29] = system: Malme-3M
# [30] = system: NCI-H226
# [31] = system: NCI-H23
# [32] = system: NCI-H460
# [33] = system: NCI-H522
# [34] = system: OVCAR-3
# [35] = system: OVCAR-4
# [36] = system: OVCAR-5
# [37] = system: OVCAR-8
# [38] = system: RPMI-8226
# [39] = system: RXF 393
# [40] = system: RXF 631
# [41] = system: SF-268
# [42] = system: SF-295
# [43] = system: SF-539
# [44] = system: SK-MEL-28
# [45] = system: SK-MEL-2
# [46] = system: SK-MEL-5
# [47] = system: SK-OV-3
# [48] = system: SN12C
# [49] = system: SNB-19
# [50] = system: SNB-75
# [51] = system: SNB-78
# [52] = system: SR
# [53] = system: SW-620
# [54] = system: TK-10
# [55] = system: U-251
# [56] = system: UACC-257
# [57] = system: UACC-62
# [58] = system: UO-31
# [59] = system: XF498
smiles,measurement,setting,value
CC(C)c1cccc(C(C)C)c1/N=C(/N)C#N,GI50,[1],> 43.6 µM (inactive)
same,GI50,[2],> 100 µM (inactive)
same,GI50,[3],> 44.2 µM (inactive)
same,GI50,[4],> 100 µM (inactive)
same,GI50,[5],> 100 µM (inactive)
same,GI50,[6],30.5 µM (inactive)
same,GI50,[7],40.6 µM (inactive)
same,GI50,[8],37 µM (inactive)
same,GI50,[9],29.9 µM (inactive)
same,GI50,[10],> 43 µM (inactive)
same,GI50,[11],> 100 µM (inactive)
same,GI50,[12],> 100 µM (inactive)
same,GI50,[13],> 44.6 µM (inactive)
same,GI50,[14],37.2 µM
same,GI50,[15],26.7 µM (inactive)
same,GI50,[16],> 86.1 µM (inactive)
same,GI50,[17],> 100 µM (inactive)
same,GI50,[18],> 41.5 µM (inactive)
same,GI50,[19],> 58.6 µM (inactive)
same,GI50,[20],> 100 µM (inactive)
same,GI50,[21],25.4 µM (inactive)
same,GI50,[22],> 100 µM (inactive)
same,GI50,[23],> 56 µM (inactive)
same,GI50,[24],25.2 µM (inactive)
same,GI50,[25],> 67.1 µM (inactive)
same,GI50,[26],> 100 µM (inactive)
same,GI50,[27],> 60 µM (inactive)
same,GI50,[28],> 45.9 µM (inactive)
same,GI50,[29],> 100 µM (inactive)
same,GI50,[30],> 100 µM (inactive)
same,GI50,[31],> 100 µM (inactive)
same,GI50,[32],> 44.9 µM (inactive)
same,GI50,[33],38 µM (inactive)
same,GI50,[34],> 100 µM (inactive)
same,GI50,[35],> 100 µM (inactive)
same,GI50,[36],> 100 µM (inactive)
same,GI50,[37],> 100 µM (inactive)
same,GI50,[38],34.4 µM (inactive)
same,GI50,[39],53.8 µM (inactive)
same,GI50,[40],> 100 µM (inactive)
same,GI50,[41],> 100 µM (inactive)
same,GI50,[42],> 100 µM (inactive)
same,GI50,[43],22.8 µM (inactive)
same,GI50,[44],> 100 µM (inactive)
same,GI50,[45],> 90.6 µM (inactive)
same,GI50,[46],> 93.5 µM (inactive)
same,GI50,[47],> 100 µM (inactive)
same,GI50,[48],> 100 µM (inactive)
same,GI50,[49],> 100 µM (inactive)
same,GI50,[50],> 100 µM (inactive)
same,GI50,[51],99.1 µM (inactive)
same,GI50,[52],46.2 µM (inactive)
same,GI50,[53],22.1 µM (inactive)
same,GI50,[54],> 100 µM (inactive)
same,GI50,[55],34 µM (inactive)
same,GI50,[56],> 46.6 µM (inactive)
same,GI50,[57],> 50.2 µM (inactive)
same,GI50,[58],> 100 µM (inactive)
same,GI50,[59],> 100 µM (inactive)
NC1=C(C(=O)O)C(=O)C(Nc2c(O)cccc2C(=O)O)=CC1=O,GI50,[1],> 100 µM (inactive)
same,GI50,[2],> 100 µM (inactive)
same,GI50,[3],> 100 µM (inactive)
same,GI50,[4],> 100 µM (inactive)
same,GI50,[5],> 100 µM (inactive)
same,GI50,[7],> 100 µM (inactive)
same,GI50,[8],31.6 µM (inactive)
same,GI50,[9],> 100 µM (inactive)
same,GI50,[10],> 100 µM (inactive)
same,GI50,[11],> 100 µM (inactive)
same,GI50,[12],31.6 µM (inactive)
same,GI50,[13],> 100 µM (inactive)
same,GI50,[14],> 100 µM
same,GI50,[15],> 100 µM (inactive)
same,GI50,[16],> 100 µM (inactive)
same,GI50,[17],> 100 µM (inactive)
same,GI50,[18],> 100 µM (inactive)
same,GI50,[19],> 100 µM (inactive)
same,GI50,[20],> 100 µM (inactive)
same,GI50,[21],> 100 µM (inactive)
same,GI50,[22],> 100 µM (inactive)
same,GI50,[23],> 100 µM (inactive)
same,GI50,[24],> 100 µM (inactive)
same,GI50,[25],> 100 µM (inactive)
same,GI50,[26],45.4 µM (inactive)
same,GI50,[27],18.7 µM (inactive)
same,GI50,[28],> 100 µM (inactive)
same,GI50,[29],40.1 µM (inactive)
same,GI50,[30],> 100 µM (inactive)
same,GI50,[31],> 100 µM (inactive)
same,GI50,[32],10 µM (inactive)
same,GI50,[33],> 100 µM (inactive)
same,GI50,[34],> 100 µM (inactive)
same,GI50,[35],> 100 µM (inactive)
same,GI50,[36],> 100 µM (inactive)
same,GI50,[37],> 100 µM (inactive)
same,GI50,[38],> 100 µM (inactive)
same,GI50,[39],31.6 µM (inactive)
same,GI50,[40],> 100 µM (inactive)
same,GI50,[41],1 µM (active)
same,GI50,[42],43 µM (inactive)
same,GI50,[43],> 100 µM (inactive)
same,GI50,[44],0.942 µM (active)
same,GI50,[45],59.3 µM (inactive)
same,GI50,[46],76 µM (inactive)
same,GI50,[47],> 100 µM (inactive)
same,GI50,[48],> 100 µM (inactive)
same,GI50,[49],> 100 µM (inactive)
same,GI50,[50],> 100 µM (inactive)
same,GI50,[51],> 100 µM (inactive)
same,GI50,[52],> 100 µM (inactive)
same,GI50,[53],> 100 µM (inactive)
same,GI50,[54],> 100 µM (inactive)
same,GI50,[55],> 100 µM (inactive)
same,GI50,[56],> 100 µM (inactive)
same,GI50,[57],60 µM (inactive)
same,GI50,[58],> 100 µM (inactive)
same,GI50,[59],> 100 µM (inactive)
Nc1c(-c2ccc(Cl)cc2Cl)[n+]([O-])c2ccccc2[n+]1[O-],GI50,[1],> 100 µM (inactive)
same,GI50,[2],> 100 µM (inactive)
same,GI50,[3],> 100 µM (inactive)
same,GI50,[4],> 100 µM (inactive)
same,GI50,[5],> 100 µM (inactive)
same,GI50,[6],> 100 µM (inactive)
same,GI50,[7],> 100 µM (inactive)
same,GI50,[8],> 100 µM (inactive)
same,GI50,[9],> 100 µM (inactive)
same,GI50,[10],> 100 µM (inactive)
same,GI50,[11],> 100 µM (inactive)
same,GI50,[12],> 100 µM (inactive)
same,GI50,[14],> 100 µM
same,GI50,[15],> 100 µM (inactive)
same,GI50,[16],76 µM (inactive)
same,GI50,[17],> 100 µM (inactive)
same,GI50,[19],> 100 µM (inactive)
same,GI50,[20],> 100 µM (inactive)
same,GI50,[21],> 100 µM (inactive)
same,GI50,[22],> 100 µM (inactive)
same,GI50,[23],> 100 µM (inactive)
same,GI50,[24],> 100 µM (inactive)
same,GI50,[25],> 100 µM (inactive)
same,GI50,[26],> 100 µM (inactive)
same,GI50,[27],> 100 µM (inactive)
same,GI50,[28],> 100 µM (inactive)
same,GI50,[29],> 100 µM (inactive)
same,GI50,[30],> 100 µM (inactive)
same,GI50,[31],> 100 µM (inactive)
same,GI50,[32],> 100 µM (inactive)
same,GI50,[33],37.4 µM (inactive)
same,GI50,[34],> 100 µM (inactive)
same,GI50,[35],> 100 µM (inactive)
same,GI50,[36],> 100 µM (inactive)
same,GI50,[37],> 100 µM (inactive)
same,GI50,[38],> 100 µM (inactive)
same,GI50,[40],> 100 µM (inactive)
same,GI50,[41],> 100 µM (inactive)
same,GI50,[42],> 100 µM (inactive)
same,GI50,[43],> 100 µM (inactive)
same,GI50,[44],> 100 µM (inactive)
same,GI50,[45],> 100 µM (inactive)
same,GI50,[46],> 100 µM (inactive)
same,GI50,[47],> 100 µM (inactive)
same,GI50,[48],> 100 µM (inactive)
same,GI50,[49],> 100 µM (inactive)
same,GI50,[50],48.2 µM (inactive)
same,GI50,[51],> 100 µM (inactive)
same,GI50,[53],> 100 µM (inactive)
same,GI50,[54],> 100 µM (inactive)
same,GI50,[55],> 100 µM (inactive)
same,GI50,[56],> 100 µM (inactive)
same,GI50,[57],> 100 µM (inactive)
same,GI50,[58],> 100 µM (inactive)
same,GI50,[59],> 100 µM (inactive)

# From ChEMBL document CHEMBL1201862, “PubChem BioAssay data set” (2004)
